Laboratory results: patent US20240124539A1, “CROSSLINKED HELIX DIMER MIMICS OF SOS AND METHODS OF USING SAME” (NEW YORK UNIVERSITY, priority 2020, published 2024)
Read-outs that look alike come from different tables or passages of the source. Residues, ends and D or L forms follow the SMILES beside them.

Key:
[1] = test system: ERK phosphorylation in HeLa cells; experiment: ERK activation assay, HeLa; format: cell-based; conditions: HeLa cells (wild-type Ras), 1, 5, 10 μM, 6 hours
Procedure: (§1) H358 or HeLa cells were initially seeded in 6-well plates (1x10^6 cells/well) and allowed to attach overnight. The cells were then incubated with indicated peptides dissolved in complete medium at specified concentrations for 6 hours at 37° C. The cells were washed twice with ice-cold PBS and then lysed in cold RIPA buffer (200 μL/well) containing 25 mM Tris-HCl, pH 7.6, 150 mM NaCl, 1% NP-40, 1% sodium doexycholic acid, 0.1% SDS, Roche Complete Protease inhibitor cocktail (1X, Sigma-Aldrich, P2714), and Roche PhosSTOP phosphatase inhibitor cocktail tablets (1X, Sigma-Aldrich, 4906845001). The cells are kept on ice for 5 minutes with occasional swirling for uniform spreading. Cell lysates are generated with a cell scraper, transferred to a microcentrifuge tube, and centrifuged at 13,000 rpm for 10 minutes at 4° C. The clarified supernatant was collected, and the total protein concentration was measured by Pierce BCA protein assay. The lysates were subjected to SDS-PAGE (10 μg/lane loading) and Western Blot analysis via immunoblotting. Primary antibodies include Phospho-p44/42 MAPK (Erk1/2) (Thr202/Tyr204) (Cell Signaling 4370), p44/42 MAPK (Erk1/2) (Cell Signaling 4695), Ras (Abcam ab 108602), and a-tubulin (Cell Signaling 2144). Secondary antibodies include anti-rabbit IgG, HRP-linked antibody (Cell Signaling 7074P2, 1:2000). […]

[2] = biological target: T1, wild-type His6-tagged H-Ras (1-166) pre-loaded with GDP (Homo sapiens, UniProt P01112); experiment: Fluorescence polarization binding assay, wild-type H-Ras-GDP
T1 construct: wild-type and mutant His6-tagged H-Ras (1-166) pre-loaded with GDP; made in house; host or cells: Escherichia coli (BL21)
From the text: GTP of the Ras-specific nucleotide exchange factor SOS. Cell 112, 685-695 (2003).

[3] = biological target: T2, wild-type H-Ras-GDP (Homo sapiens, UniProt P01112); experiment: Microscale thermophoresis (MST), wild-type H-Ras-GDP; format: binding
T2 construct: Wild-type and mutant N-terminal His6-H-Ras (residues 1-166) in pProEx HTb expression vector; His6 (N); made in house; host or cells: Escherichia coli (BL21)
Procedure: Fluorescent labeling of the H-Ras protein was performed using the Monolith Protein Labeling Kit RED-MALEIMIDE 2nd Generation from NanoTemper (MO-L014) or AFDye 647 maleimide fluoroprobes (1122-1). Briefly, 20 nM of H-Ras protein was labeled with 1.5 equivalents of cysteine reactive dye in the 1× PBS under dark for 90 minutes. Labeled Ras proteins were then purified via the kit provided column, and the Degree of Label (DOL) was calculated by using the dye's absorbance and protein's original absorbance. The observed DOL value after the labeling for wild-type H-Ras-GDP was 0.43 and G12V H-Ras-GDP was 0.98.
MST binding assays were conducted with NanoTemper Monolith NT.115 Pico. Assay conditions were optimized with a premium coated capillary tube from NanoTemper to avoid random adsorption. Measurement was performed at 25° C. using 10-15% laser excitation power for 20 seconds. The assay buffer was composed of 50 mM Tris, 100 mM NaCl, and 0.1% pluronic acid. 5-10 nM of the dye labeled protein was exposed to serial dilutions of indicated CHDs and incubated for 90 mins in room temperature before the measurements. Error bars are generated from triplicates. Binding affinities were obtained from the MO analysis software in NT.115 Pico with the following equation:
[formula] [formula] • where, Unbd=Response value of unbound state Bd=Response value of bound state TC=Final concentration of fluorescent molecule

[4] = test system: T24 cells; experiment: Flow cytometry cellular uptake, T24; format: cell-based; conditions: fluorescently labeled peptide 1 μM, 1 h
Procedure: (§2) All compounds are dissolved as concentrated stocks in DMSO.

[5] = test system: H358 cells; experiment: Flow cytometry cellular uptake, H358; format: cell-based; conditions: fluorescently labeled peptide 1 μM, 1 h
Procedure: as §2

[6] = test system: ERK phosphorylation in H358 cells; experiment: ERK activation assay, H358; format: cell-based; conditions: H358 cells, 1, 5, 10 μM, 6 hours
Procedure: as §1

[7] = test system: Ras wild type and mutant cell lines; experiment: MTT cell viability assay; format: cell-based; conditions: 72 hours, in presence of serum; oncogenic Ras mutant cell lines in comparison to wild-type Ras HeLa control
Procedure: Cell viability was monitored using the MTT (Sigma-Aldrich, M2128) or CellTiter-Glo Luminescent cell viability assay (Promega).
Cell viability was monitored using the MTT (Sigma-Aldrich, M2128) […] cell viability assay. Cells were plated in clear 96-well plates at 2000 cells/well and allowed to affix overnight at 37° C. Each well is gently aspirated and washed with serum-free medium before introducing peptide inhibitors dissolved in complete medium with 0.5% DMSO (v/v final) to desired concentrations (90 μL/well). The cells are incubated in the presence of peptide for 72 hours at 37° C. MTT reagent solution is composed of Thiazolyl Blue Tetrazolium Bromide dissolved in Dulbecco's Phosphate Buffered Saline (DPBS), pH 7.4 to a concentration of 5 mg/mL and subsequently sterile-filtered into a light-protected container. MTT reagent was added to each well (0.45 mg/mL/well final). The cells are incubated at 37° C. for an additional 4 hours. Upon careful removal of the supernatant, 150 μL DMSO (solubilization solution) is added to each well and mixed to ensure complete solubilization and release of the insoluble purple formazan precipitate into solution. Absorbance values are recorded with a Synergy HT Multi-Detection Microplate Reader (BioTek) at 570 nm.

[8] = in vitro; conditions: bovine, 25% fetal bovine serum
Procedure: A 45 μL mixture of 33% FBS (v/v) in serum-free medium was prepared for each sample. The addition of 15 μL of indicated peptide in serum-free medium (25% FBS final) per each experiment was recorded as the starting time point. Time points of 5 min, 6 hours, 12 hours, and 24 hours were analyzed in triplicate. Each experiment was quenched at the determined time point by adding 30 μL 100% EtOH, which was prepared at −70° C. After cooling on ice for 10 minutes, each sample was pelleted at 14,000× g for 5 minutes. 30 μL of the supernatant was isolated, and 3 μL of 500 μM L-Tryptophan was titrated into the sample to be used as an internal standard. The resulting mixture was then immediately subjected to RP-HPLC with a C18 3.5 μm 2.1×150 mm analytical column and monitored at 280 nm. Eluting peaks were collected, and the mass of each peak was determined using MALDI-TOF spectroscopy. Integrated peak area of non-degraded peptides was used to determine the percent surviving in each given condition.

[9] = test system: SW780 cells; conditions: SW780 cells (oncogenic FGFR3 fusions), 1 μM, 1 h
Procedure: The indicated cell lines were seeded at 1×10^5 cells/well in clear polystyrene 24-well plates (Corning) and incubated overnight. The initial growth medium is replaced with serum-free medium and incubated for 2 hours at 37° C. Upon aspiration, the cells are incubated in serum-free medium containing 0.4% DMSO (v/v) for one hour. The cells were then treated with 1 μM (final) of fluorescein-conjugated peptides in serum-free medium for another hour while protected from light. All compounds are dissolved as concentrated stocks in DMSO. Each well was aspirated and treated with 1× trypsin (0.25% trypsin, 2.21 mM EDTA, Corning Cellgro) for 10 minutes at 37° C. After trypsinization, the resulting solution was mixed with cold serum-free medium and collected. The samples are centrifuged at 500 rpm for 5 minutes at 4 °C.
The supernatant was removed, and the cell pellets were resuspended with cold PBS before placed on ice. Each sample was treated with 10% trypan blue (v/v) immediately before analysis by flow cytometry on a Becton Dickinson Accuri flow cytometer. The presented data consists of the median fluorescence intensities for at least 10,000 cells/sample and processed using FlowJo (Tree Star Inc.).

[10] = compared to CHD^Sos-2
[11] = biological target: G12C mutant H-Ras pre-loaded with GDP (Homo sapiens, UniProt P01112, G12C)
Procedure: (§3) Wild-type and mutant N-terminal His6-H-Ras (residues 1-166) in pProEx HTb expression vector were expressed in Escherichia coli (BL21). Cells were grown at 37 ° C. to an absorbance of 0.7 at 600 nm. Protein expression was induced with 500 μM isopropyl β-D-1-thiogalactopyranoside (IPTG) for 6 hours at 30° C. or overnight at 18° C. The bacterial cells were pelleted via centrifugation at 4500 rpm for 15 minutes. Bacterial pellets were resuspended in a lysis buffer containing 20 mM Tris pH 7.4, 300 mM NaCl, 2 mM 2-mercaptoethanol, and a complete, EDTA-free protease inhibitor cocktail (Roche). The lysis, elution and dialysis buffers were also supplemented with 2.5 mM MgCl2. The resuspended pellets were sonicated using a Branson Cell Disrupter 200. Clarified lysates were formed upon centrifugation at 13,000 rpm for 20 minutes at 4° C. and incubated with charged Ni-NTA resin (Invitrogen) at 4° C. for 1 hour. The resin beads were washed five times with resuspension buffer containing 5 mM imidazole. The His6-tagged proteins were eluted via gravity flow with buffer containing 200 mM imidazole in buffer containing 20 mM Tris, 300 mM NaCl, pH 7.4. Eluted proteins were dialyzed twice against buffer containing 20 mM Tris, 300 mM NaCl, 2.5 mM MgCl2, pH 7.4 for H-Ras. For HSQC and photoaffinity labeling studies, the polyhistidine tag was cleaved using Tobacco Etch Virus (TEV) protease before proceeding to nucleotide loading.
(§4) The generated binding affinity (KD) values for each compound are from biological triplicate studies and were determined via fitting to a sigmoidal dose-response nonlinear regression model on Graphpad Prism 6.

[12] = biological target: G12V mutant H-Ras pre-loaded with GDP (Homo sapiens, UniProt P01112, G12V)
Procedure: as §3, §4

[13] = biological target: G12D mutant H-Ras pre-loaded with GDP (Homo sapiens, UniProt P01112, G12D)
Procedure: as §3, §4

T2 sequence (P01112 1-166): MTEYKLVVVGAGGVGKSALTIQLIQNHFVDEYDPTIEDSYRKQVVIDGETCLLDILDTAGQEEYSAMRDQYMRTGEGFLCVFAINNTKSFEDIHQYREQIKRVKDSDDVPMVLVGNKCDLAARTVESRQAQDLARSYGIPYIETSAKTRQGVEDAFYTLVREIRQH
T1 sequence (P01112 1-166): as above
Sequence of G12D mutant H-Ras pre-loaded with GDP (P01112 1-166 G12D): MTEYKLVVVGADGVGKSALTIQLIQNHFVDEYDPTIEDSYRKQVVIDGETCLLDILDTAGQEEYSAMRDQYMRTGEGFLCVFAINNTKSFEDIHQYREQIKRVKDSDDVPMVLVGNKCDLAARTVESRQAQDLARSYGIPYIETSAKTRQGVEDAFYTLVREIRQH
Sequence of G12V mutant H-Ras pre-loaded with GDP (P01112 1-166 G12V): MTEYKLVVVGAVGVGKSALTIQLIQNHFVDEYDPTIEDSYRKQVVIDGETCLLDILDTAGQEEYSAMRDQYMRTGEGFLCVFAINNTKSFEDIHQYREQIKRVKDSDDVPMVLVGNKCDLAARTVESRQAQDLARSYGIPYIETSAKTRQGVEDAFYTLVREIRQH
Sequence of G12C mutant H-Ras pre-loaded with GDP (P01112 1-166 G12C): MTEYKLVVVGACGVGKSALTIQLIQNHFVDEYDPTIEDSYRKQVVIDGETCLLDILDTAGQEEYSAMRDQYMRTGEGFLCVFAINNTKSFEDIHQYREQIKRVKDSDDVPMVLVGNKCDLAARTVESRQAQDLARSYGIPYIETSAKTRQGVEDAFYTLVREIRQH

SMILES	effect on ERK phosphorylation [1]	Kd ([2]; fluorescein-derivatized CHD, GDP-bound wild-type H-Ras, fluorescence polarization, read-out: binding affinity, Kd)	concentration above which aggregation was observed ([3]; MST with wild-type H-Ras-GDP, interrupted binding isotherm)	Kd ([3]; MST, fluorescently-labeled Ras, read-out: binding affinity, Kd)	cellular uptake, median fluorescence intensity [4]	cellular uptake, median fluorescence intensity [5]	effect on ERK phosphorylation [6]	cell viability (MTT) [7]	Kd [2]	Kd [3]	half-life [8]	remaining at 24 h [8]	cellular uptake [9]	aqueous solubility [10]	binding affinity [11]	binding affinity [12]	binding affinity [13]
CC[C@H](C)[C@H](NC(=O)[C@H](C)NC(C)=O)C(=O)NCC(=O)N[C@@H](CCCNC(=N)N)C(=O)N[C@@H](CC(C)C)C(=O)N[C@@H](CSCc1ccc(COCc2ccc(CSC[C@H](NC(=O)[C@H](CC(C)C)NC(=O)[C@H](CCCNC(=N)N)NC(=O)[C@H](C)NC(=O)[C@H](CC(C)C)NC(=O)[C@H](CCC(=O)O)NC(=O)[C@H](CCCNC(=N)N)NC(=O)[C@H](CCC(=O)O)NC(=O)[C@H](CC(C)C)NC(=O)[C@H](CCC(=O)O)NC(=O)[C@H](CCCNC(=N)N)NC(=O)[C@H](CC(C)C)NC(=O)[C@H](CCCNC(=N)N)NC(=O)[C@H](Cc3c[nH]c4ccccc34)NC(=O)[C@H](C)NC(=O)[C@H](CC(C)C)NC(C)=O)C(N)=O)cc2)cc1)C(=O)N[C@H](C(=O)N[C@@H](CCC(=O)O)C(=O)N[C@H](C(=O)N[C@@H](CC(C)C)C(=O)N[C@@H](CCCNC(=N)N)C(=O)N[C@@H](CC(C)C)C(=O)N[C@@H](CCCNC(=N)N)C(=O)N[C@@H](CC(N)=O)C(=O)NCC(=O)N[C@@H](C)C(N)=O)[C@@H](C)CC)[C@@H](C)O [CHC^Sos-3] (HELM PEPTIDE1{[ac].A.I.G.R.L.C.T.E.I.L.R.L.R.N.G.A.[am]}|PEPTIDE2{[ac].L.A.W.R.L.R.E.L.E.R.E.L.A.R.L.C.[am]}|CHEM1{[c1cc(C[*:1])ccc1COCc1ccc(C[*:2])cc1]}$PEPTIDE1,CHEM1,7:R3-1:R1|PEPTIDE2,CHEM1,17:R3-1:R2$$$V2.0)	did not suppress ERK phosphorylation	> 100000 nM	higher than 3 μM	> 100000 nM	lower uptake than CHC^Sos-5	lower uptake than CHC^Sos-5	did not suppress ERK phosphorylation	little to no effect									
CC[C@H](C)[C@H](NC(=O)[C@H](Cc1c[nH]c2ccccc12)NC(C)=O)C(=O)NCC(=O)N[C@@H](CCCNC(=N)N)C(=O)N[C@@H](CC(C)C)C(=O)N[C@@H](CSCc1ccc(COCc2ccc(CSC[C@H](NC(=O)[C@H](CC(C)C)NC(=O)[C@H](CCCNC(=N)N)NC(=O)[C@H](C)NC(=O)[C@H](CC(C)C)NC(=O)[C@H](CCC(=O)O)NC(=O)[C@H](CCCNC(=N)N)NC(=O)[C@H](CCC(=O)O)NC(=O)[C@H](CC(C)C)NC(=O)[C@H](CCC(=O)O)NC(=O)[C@H](CCCNC(=N)N)NC(=O)[C@H](CC(C)C)NC(=O)[C@H](CCCNC(=N)N)NC(=O)[C@H](Cc3c[nH]c4ccccc34)NC(=O)[C@H](C)NC(=O)[C@H](CC(C)C)NC(C)=O)C(N)=O)cc2)cc1)C(=O)N[C@H](C(=O)N[C@@H](CCC(=O)O)C(=O)N[C@H](C(=O)N[C@@H](CCCCNC(=N)N)C(=O)N[C@@H](CCCNC(=N)N)C(=O)N[C@@H](CC(C)C)C(=O)N[C@@H](CCCNC(=N)N)C(=O)N[C@@H](CC(N)=O)C(=O)NCC(=O)N[C@@H](CC(N)=O)C(N)=O)[C@@H](C)CC)[C@@H](C)O [CHC^Sos-5] (HELM PEPTIDE1{[ac].L.A.W.R.L.R.E.L.E.R.E.L.A.R.L.C.[am]}|PEPTIDE2{[ac].W.I.G.R.L.C.T.E.I.[N=C(N)NCCCC[C@H](N[*:1])C(=O)[*:2]].R.L.R.N.G.N.[am]}|CHEM1{[c1cc(C[*:1])ccc1COCc1ccc(C[*:2])cc1]}$PEPTIDE1,CHEM1,17:R3-1:R1|PEPTIDE2,CHEM1,7:R3-1:R2$$$V2.0)									2000 ± 300 nM	300 ± 100 nM	> 24 h	~60%	permeable	improves its aqueous solubility	low micromolar affinity range	low micromolar affinity range	low micromolar affinity range
